The test addresses canine TRPM8 (Canis lupus familiaris, UniProt Q1A7N1). Briefly: In Vitro Canine TRPM8 Functional Assay (Ca2+ fluorescence, icilin activation). It counts as cell-based. The following applies: for IC50: HEK293 cells stably expressing canine TRPM8, icilin activation, eight-point dose-response, read-out: IC50; for % Inh @ 0.2 (μM) / inhibition at 0.2 µM: compound at 0.2 μM; for inhibition at 0.2 µM: read-out: % Inh @ 0.2. In outline: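 HEK293 cells stably expressing canine TRPM8 were loaded with Calcium 3 dye (35 min at 37 °C, then 25 min at room temperature). Compound was added and Ca2+ fluorescence was read for 5 min before icilin at a concentration giving about 80% maximal response. EC50/IC50 came from eight-point dose-response curves, quadruplicate wells.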

[1] abbreviates: canine TRPM8, icilin activation.

This note sets out measurements from patent US9434711B2 (Janssen Pharmaceutica, NV, priority 2007, dated 2016).

Chain of canine TRPM8 (Q1A7N1 1-1104): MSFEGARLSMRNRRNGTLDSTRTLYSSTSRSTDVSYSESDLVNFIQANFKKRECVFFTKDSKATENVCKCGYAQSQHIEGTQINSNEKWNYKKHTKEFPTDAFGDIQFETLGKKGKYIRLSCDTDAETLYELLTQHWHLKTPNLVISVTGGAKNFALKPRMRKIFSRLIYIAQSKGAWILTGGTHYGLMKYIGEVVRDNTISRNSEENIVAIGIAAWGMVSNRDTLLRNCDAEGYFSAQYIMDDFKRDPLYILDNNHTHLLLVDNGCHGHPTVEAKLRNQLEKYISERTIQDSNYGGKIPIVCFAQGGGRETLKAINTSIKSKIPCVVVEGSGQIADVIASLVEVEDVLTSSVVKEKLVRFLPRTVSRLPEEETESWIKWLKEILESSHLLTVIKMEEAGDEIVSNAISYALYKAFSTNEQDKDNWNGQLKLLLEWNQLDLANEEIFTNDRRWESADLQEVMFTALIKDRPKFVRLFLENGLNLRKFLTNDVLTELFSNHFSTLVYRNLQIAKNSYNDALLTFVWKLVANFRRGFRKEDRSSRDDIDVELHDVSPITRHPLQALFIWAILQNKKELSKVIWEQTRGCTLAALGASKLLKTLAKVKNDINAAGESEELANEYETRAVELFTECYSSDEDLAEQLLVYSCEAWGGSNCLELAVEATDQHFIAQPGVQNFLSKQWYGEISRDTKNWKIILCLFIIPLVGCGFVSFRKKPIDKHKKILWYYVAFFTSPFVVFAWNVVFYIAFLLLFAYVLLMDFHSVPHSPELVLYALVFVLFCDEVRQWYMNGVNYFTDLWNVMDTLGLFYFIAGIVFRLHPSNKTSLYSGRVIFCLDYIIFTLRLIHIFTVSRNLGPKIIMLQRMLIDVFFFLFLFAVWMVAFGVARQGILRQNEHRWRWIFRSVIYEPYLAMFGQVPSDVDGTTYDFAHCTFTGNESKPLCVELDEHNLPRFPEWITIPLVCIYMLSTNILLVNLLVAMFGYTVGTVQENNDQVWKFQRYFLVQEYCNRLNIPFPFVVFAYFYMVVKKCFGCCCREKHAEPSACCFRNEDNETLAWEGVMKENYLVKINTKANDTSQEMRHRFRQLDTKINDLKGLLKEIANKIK

For `O=S1NC(c2ccc(S(=O)(=O)N(CCC3CC3)c3sc4ccccc4c3Br)cc2)=NO1` (centres unmarked) [Compound 624, N-(3-Bromo-benzo[b]thiophen-2-yl)-N-(cyclopropyl-ethyl)-4-(3H-[1,2,3,5]oxathiadiazole-2-oxide)-benzenesulfonamide], the IC50 is 13.4 nM. Further, under setting [1], the “% Inh @ 0.2 (μM)” value was determined as 103%.
For `CS(=O)(=O)Nc1ccc(S(=O)(=O)N(Cc2ccc(F)c(C(F)(F)F)c2)c2sc3ccccc3c2Cl)cc1` [Compound 659, N-(3-Chloro-benzo[b]thiophen-2-yl)-N-(4-fluoro-3-trifluoromethyl-benzyl)-4-methanesulfonylamino-benzenesulfonamide], the half-inhibitory concentration (IC50) amounted to 14.1 nM. For the same molecule, the inhibition at 0.2 µM under setting [1] came out at 100%.
On to `Cc1c(N(Cc2ccc(F)c(C(F)(F)F)c2)S(=O)(=O)c2ccc3c(c2)NC(=O)CO3)sc2ccccc12` [Compound 67], for which the IC50 was 55 nM. The “% Inh @ 0.2 (μM)” value under setting [1] was 77%.
With `Cc1cc(C(=O)O)sc1S(=O)(=O)N(Cc1ccc(F)c(C(F)(F)F)c1)c1sc2ccccc2c1C` [Compound 528, N-(3-Methyl-benzo[b]thiophen-2-yl)-N-(4-fluoro-3-trifluoromethyl-benzyl)-(5-carboxy-3-methyl-thien-2-yl)-sulfonamide], the IC50 stood at 16 nM. Besides, under setting [1], the inhibition at 0.2 µM stood at 102%.
On the same counts, the results for `O=S(=O)(c1ccc(-c2nnn[nH]2)cc1)N(CCC1CC1)c1sc2ccccc2c1Cl` [Compound 635, N-(3-Chloro-benzo[b]thiophen-2-yl)-N-(2-cyclopropyl-ethyl)-4-(1H-tetrazol-5-yl)-benzenesulfonamide] are 7.4 nM and 101%.
Taken in the same sequence, the figures for `Cc1c(N(Cc2ccc(F)c(C(F)(F)F)c2)S(=O)(=O)c2ccc3ncsc3c2)sc2ccccc12` [Compound 65, N-(4-Fluoro-3-trifluoromethyl-benzyl)-N-(3-methyl-benzo[b]thiophen-2-yl)-benzothiazole-6-sulfonamide] were 17 nM and 97%.
With “N-(3-Bromo-thieno[3,2-b]pyridin-2-yl)-N-(3,4-difluoro-benzyl)-benzenesulfonamide and N-(3-chloro-thieno[3,2-b]pyridin-2-yl)-N-(3,4-difluoro-benzyl)-benzenesulfonamide [Compound 145]”, the IC50 turned out to be 14.1 nM. Besides, the “% Inh @ 0.5 (μM)” value (compound at 0.5 μM, canine TRPM8, icilin activation) is given as 100%.
For the molecule `Cc1c(N(Cc2ccc(F)c(C(F)(F)F)c2)S(=O)(=O)CCC=O)sc2ccccc12` [Compound 724, N-(4-Fluoro-3-trifluoromethyl-benzyl)-N-(3-methyl-benzo[b]thiophen-2-yl)-3-oxo-propane-1-sulfonamide], the half-inhibitory concentration (IC50) is 5.3 nM. The inhibition at 0.2 µM under setting [1] came to 102%.
On the same counts, the results for `O=C(O)c1ccc(S(=O)(=O)N(CC2CCCCC2)c2sc3ccccc3c2Br)cc1` [Compound 279, N-(3-Bromo-benzo[b]thiophen-2-yl)-N-(cyclohexylmethyl)-4-carboxy-benzenesulfonamide] are 1.3 nM and 97%.
Regarding `CCS(=O)(=O)N(Cc1ccc(F)c(C(F)(F)F)c1)c1sc2ccccc2c1-c1ccc(F)cc1` [Compound 201, N-[3-(4-Fluoro-phenyl)-benzo[b]thiophen-2-yl]-N-(4-fluoro-3-trifluoromethyl-benzyl)-ethanesulfonamide], under setting [1], the inhibition at 0.2 µM turned out to be 14%.
For the molecule `CNc1ccc(S(=O)(=O)N(CCC2CC2)c2cc3ccccc3s2)cc1` [Compound 688, N-(Benzo[b]thiophen-2-yl)-N-(2-cyclopropyl-ethyl)-4-methylamino-benzenesulfonamide], the concentration for half-maximal inhibition (IC50) is 60.2 nM. Under setting [1], the inhibition at 0.2 µM stood at 99%.
Taken in the same sequence, the figures for `Cc1c(N(Cc2ccc(F)c(C(F)(F)F)c2)S(=O)(=O)c2cccc(C(=O)O)c2)sc2cc(F)ccc12` [Compound 376, N-(6-Fluoro-3-methyl-benzo[b]thiophen-2-yl)-N-(4-fluoro-3-trifluoromethyl-benzyl)-3-carboxy-benzenesulfonamide] were 26 nM and 85%.

By IC50 is commonly meant the concentration that gives 50% inhibition.
